In patent US20170355736A1, “MORTALIN PEPTIDES AND ANTIBODIES AND USES THEREOF FOR INHIBITING MORTALIN ACTIVITY AND TREATING A DISEASE ASSOCIATED WITH A PATHOLOGICAL CELL” (Ramot at Tel-Aviv University Ltd., priority 2014, published 2017):

What was measured:
mortalin-C9 binding = mortalin-C9 binding (Homo sapiens, UniProt P02748); test: ELISA of mortalin binding to C9 with or without mortalin peptides; set-up: key: ↑: enhance; ↓: inhibit; ↑↓: effect depends on dose/time; —: no effect; conditions: summary of in vitro effects
Protocol: FIG. 1 is a histogram depicting results of ELISA (enzyme-linked immunosorbent assay) which detected binding of mortalin to C9 in the presence or absence of various mortalin peptides. Purified human C9 (0.057 μM) was attached overnight at 4° C. to wells of a 96-wells plate and then the excess of C9 was washed. Following, His-tagged recombinant mortalin (0.007 μM) was added to the wells for 1 hour at 37° C. with or without the designated peptides (each at a concentration of 170 μM), which were dissolved in 1% BSA (bovine serum albumin). Following incubation with the mortalin and peptides the wells were washed, treated for 1 hour at 37° C. with mouse anti-His antibody (diluted 1:1000) followed by 1 hour incubation at room temperature with peroxidase-labeled goat anti-mouse IgG (diluted 1:10,000), developed with O-phenylenediamine (OPD) and analyzed by an ELISA reader at 492 nm. […]
Methods of detecting the binding between mortalin and C9 are known in the art [Pilzer et al. Int Immunol (2005) 17:1239-1248; Pilzer et al. Int J Cancer (2010). […] After incubation of the C9 and mortalin, the excess of the labeled mortalin and of the peptide is removed by washing the plate, and the amount of labeled mortalin which is bound to the surface-attached C9 protein is determined using an anti-His antibody (e.g., a mouse anti-His antibody). […]

[1] = test system: primary B-CLL leukemia cells; test: Direct cell killing of primary leukemia cell preparations, PI flow cytometry; assay type: cell-based, human; conditions: peptides with TAT sequence at C-terminal, 20 hours, 50 µM concentration
Protocol: (§1) FIG. 8 is a histogram depicting cell death of B-CLL leukemia cells by mortalin peptides. […] Mortalin peptides numbers 2, 7, 8, 10, 14 and 16 and a scrambled control peptide (PC) were tested. […] Following, the cells were labeled with PI and analyzed by Flow Cytometry. Percent of dead cells (PI positive) was calculated.
as §1, with “FIG. 9” for “FIG. 8”
FIG. 10 is a histogram depicting cell death of B-CLL leukemia cells by mortalin peptides. […] Following, the cells were labeled with PI and analyzed by Flow Cytometry. Percent of dead cells (PI positive) was calculated.
FIG. 11 is a histogram depicting cell death of B-CLL leukemia cells and normal mononuclear cells by mortalin peptides. […] Following, the cells were labeled with PI and analyzed by Flow Cytometry. Percent of dead cells (PI positive) was calculated.
Blood drawing from B-CLL patients was approved by the Helsinki Committee of Rabin Medical Center, Petach Tikvah, Israel. […] The cells were treated for 20 hours with the peptides at […] concentration and cell death was determined by propidium iodide labeling and analysis by flow cytometry. […]

[2] = test system: leukemia and lymphoma cell lines; test: Direct cell killing / direct toxicity (complement independent), overall statement; assay type: cell-based; set-up: key: ↑: enhance; ↓: inhibit; ↑↓: effect depends on dose/time; —: no effect; conditions: summary of in vitro effects; complement independent cytotoxicity; cell lines and primary B-CLL cells
Protocol: The toxic effect of these peptides was tested on 3 leukemia/lymphoma cell lines Raji (FIG. 5), Ramos (FIG. 6) and Z-138 (FIG. 7). The cells were treated for 24 hours with the peptides and cell death was determined by propidium iodide labeling and analysis by flow cytometry.
In summary, Table 6 below illustrates the relative effects of some of the peptides on mortalin-C9 binding, C9 polymerization, complement-dependent cytotoxicity and complement independent cytotoxicity (direct toxicity).

Raji cells = test: Complement independent cytotoxicity, Annexin V/PI, FACS; assay type: cell-based, human; conditions: stand-alone treatment, 0.8 mM, 24 hours
Description: (§2) Then, the cells were labeled with Annexin/PI and analyzed by Flow Cytometry. FIG. 3A—a histogram depicting the percent of dead cells (Annexin and PI positive) as calculated. FIGS. 3B-D—representative images of cells in control (FIG. 3B) and peptide-treated groups [FIG. 3C (treated with peptide no. 14) and FIG. 3D (treated with peptide no. 16)] stained by DAPI and observed under a fluorescence microscope.
(§3) The complement independent cytotoxic effect of the peptides—To address the toxic effect of the peptides as single agents, the present inventor tested the effect of the peptides no. 14 and 16 on K562 and Raji human cancer cells. The cells were incubated with the peptides for 24-48 hours in growth medium and then tested for apoptosis using an Annexin V/PI (Propidium Iodide) staining kit followed by FACS analysis.

K562 cells [3] = test: as above; assay type: cell-based, human; conditions: stand-alone treatment, 0.8 mM, 24 hours
Protocol: as §2, with “Raji or K562 cells were treated without (C) or with 2 mM peptides for 48 hours in their culture medium. Then,” for “Then,”
as §3

Purified human C9 = Purified human C9 (Homo sapiens, UniProt P02748); test: Zinc-induced C9 polymerization, SDS-PAGE/Coomassie; assay type: biochemical
Protocol: FIGS. 2A-B are Coomassie blue stained gels depicting inhibition of C9 polymerization by mortalin or the isolated mortalin peptides. Purified human C9 ([…]) was mixed for 15 minutes at 37° C. with BSA ([…]) as control (lanes marked as “BSA”), mortalin ([…], lanes marked as “mot”) or mortalin peptides (1 mM, lanes marked by “p” and the indicated peptide numbers) that were freshly dissolved in Tris buffered saline (TBS); and then incubated with 42 μM ZnCl2 for 2 hours at 37° C. The first lane on the left, marked “C9” refers to a positive control of the purified C9 without BSA, without mortalin or without the isolated peptides. Samples were subjected to SDS-PAGE on a 2.5-14% acrylamide gradient gel and stained with Coomassie blue. The bands of poly C9 appearing on the top part of the gel are indicated. FIGS. 2A and 2B represent two independent experiments.
The effect of the peptides on C9 polymerization—Formation of the complement membrane pores requires that multiple C9 molecules undergo polymerization and generate the doughnut-shape transmembrane complex; thus the effect of the peptides on C9 polymerization was tested. C9 polymerization occurs during C5b-9 generation [Podack and Tschopp, Proc Natl Acad Sci USA. (1982) 79(2):574-8]. […] C9 was mixed with peptides and 42 μM ZnCl2 for 2 hours and the samples were analyzed by SDS-PAGE, on a 2.5-14% acrylamide gradient gel. […]

K562 cells [4] = test: Complement-dependent cytotoxicity (CDC), antibody + normal human serum, PI inclusion/FACS; assay type: cell-based; conditions: summary of in vitro effects
Protocol: K562 cells were either pre-incubated with peptides (60 minutes at 37° C.) and then treated with Rabbit anti-K562 polyclonal antiserum (Ab) and normal human serum (as a source for complement) or treated with Ab and complement in presence of the peptide [Ziporen et al. J. Immunol. (2009) 182: 515-21]. Cell death was measured by PI (Propidium Iodide) inclusion and FACS analysis, after 1 hour treatment at 37° C. The effect of the peptides on complement-dependent cytotoxicity—The next objective was to determine which of the peptides could alter cell death and sensitize cancer cells to complement-dependent cytotoxicity (CDC). Thus, cells were incubated with the peptides prior to antibody and complement treatment (denoted herein as pre-incubation) or treated concomitantly with antibody and complement in the presence of the peptides (denoted herein as without pre-incubation). It should be noted that in cases where the peptide was incubated with the cells prior to addition of the antibody and complement (serum) (noted as “preincubation”) cell cytotoxicity begins as complement independent, and then, upon addition of the antibody and complement can continue as complement dependent. […]

Sequence of Purified human C9 (P02748 22-559): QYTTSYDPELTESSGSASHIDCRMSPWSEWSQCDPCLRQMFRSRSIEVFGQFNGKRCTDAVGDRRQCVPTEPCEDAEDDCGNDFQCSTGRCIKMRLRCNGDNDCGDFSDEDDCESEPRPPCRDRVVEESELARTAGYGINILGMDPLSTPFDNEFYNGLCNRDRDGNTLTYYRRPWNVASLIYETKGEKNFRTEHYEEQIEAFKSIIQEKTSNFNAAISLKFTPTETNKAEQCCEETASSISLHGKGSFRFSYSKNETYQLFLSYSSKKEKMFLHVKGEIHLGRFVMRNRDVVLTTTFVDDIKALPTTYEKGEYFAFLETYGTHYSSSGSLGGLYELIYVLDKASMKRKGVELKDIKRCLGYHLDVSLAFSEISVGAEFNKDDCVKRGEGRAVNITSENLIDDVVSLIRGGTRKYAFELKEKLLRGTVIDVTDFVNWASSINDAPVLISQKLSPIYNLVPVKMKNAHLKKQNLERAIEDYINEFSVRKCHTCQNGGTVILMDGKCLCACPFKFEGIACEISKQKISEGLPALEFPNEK
Sequence of mortalin-C9 binding (P02748 22-559): as above

Compound	Mortalin-C9 binding (mortalin-C9 binding)	cell killing effect on primary leukemia cells [1]	Direct toxicity [2]	capacity to induce apoptosis, TAT-modified versus native peptide no: 14 (Raji cells)	capacity to induce apoptosis, TAT-modified versus native peptide no: 14 (K562 cells [3])	effect on C9 polymerization (Purified human C9; peptides 1 mM, mortalin 1.4 mM, 42 μM ZnCl2, 2 hours, 37° C., poly C9 band on gel)	C9 polymerization (Purified human C9; summary of in vitro effects)	Effect on CDC (K562 cells [4])
CSCC[C@H](NC(=O)[C@H](Cc1ccc(O)cc1)NC(=O)[C@H](CC(C)C)NC(=O)[C@H](CCC(=O)O)NC(=O)[C@H](CO)NC(=O)[C@H](CCCCN)NC(=O)[C@H](C)NC(=O)[C@H](CCCCN)NC(=O)[C@H](CCC(=O)O)NC(=O)[C@H](C)NC(=O)[C@H](C)NC(=O)[C@H](CCC(=O)O)NC(=O)[C@H](CCCNC(=N)N)NC(=O)[C@@H](NC(=O)[C@H](CCCNC(=N)N)NC(=O)[C@H](CCC(N)=O)NC(=O)[C@H](CC(C)C)NC(=O)[C@H](C)NC(=O)[C@H](CCSC)NC(=O)[C@@H](N)CC(N)=O)C(C)C)C(=O)NCC(=O)N[C@@H](CCCNC(=N)N)C(=O)N[C@@H](CCCCN)C(=O)N[C@@H](CCCCN)C(=O)N[C@@H](CCCNC(=N)N)C(=O)N[C@@H](CCCNC(=N)N)C(=O)N[C@@H](CCC(N)=O)C(=O)N[C@@H](CCCNC(=N)N)C(=O)N[C@@H](CCCNC(=N)N)C(=O)N[C@@H](CCCNC(=N)N)C(=O)O [Peptide 8, NMALQRVREAAEKAKSEL]	—	cell killing effect	↑ (*)—					
MVKNAEKYAEEDRYMGRKKRRQRRR (synthetic peptide (TAT modified peptide 14)) [TAT-peptide no: 14]				markedly enhanced the capacity of peptide no: 14 to induce apoptosis	markedly enhanced the capacity of peptide no: 14 to induce apoptosis			
Mortalin: human mortalin protein, member of the HSP70 family (SEQ ID NO: 24), recombinant			—			completely inhibited C9 polymerization	↓↓↓	↓↓↓
